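Five compound concentrations were applied to cells in 96-well plates for 48 hours; endpoints were derived by simple linear interpolation of the resulting dose-response curve. GI50 marks 50% less growth. At the TGI there is no net growth.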
Key:
Assay in all cases: NCI-60 cell line screen, 48 h
UACC-62 melanoma = test system: UACC-62 melanoma
NCI-H23 lung = test system: NCI-H23 lung
OVCAR-8 ovarian = test system: OVCAR-8 ovarian
SK-MEL-5 melanoma = test system: SK-MEL-5 melanoma
LOX IMVI melanoma = test system: LOX IMVI melanoma
MOLT-4 leukemia = test system: MOLT-4 leukemia
MDA-MB-231 breast = test system: MDA-MB-231 breast
MDA-MB-435 = test system: MDA-MB-435
PC-3 prostate = test system: PC-3 prostate
SR leukemia = test system: SR leukemia
SW-620 colon = test system: SW-620 colon
HOP-62 NSCLC = test system: HOP-62 NSCLC
SF-268 CNS = test system: SF-268 CNS
OVCAR-5 ovarian = test system: OVCAR-5 ovarian
UO-31 renal = test system: UO-31 renal
ACHN renal = test system: ACHN renal
M14 melanoma = test system: M14 melanoma
COLO 205 colon = test system: COLO 205 colon
MALME-3M melanoma = test system: MALME-3M melanoma
UACC-257 melanoma = test system: UACC-257 melanoma
HCC-2998 colon = test system: HCC-2998 colon
SNB-19 CNS = test system: SNB-19 CNS
SF-295 CNS = test system: SF-295 CNS
RPMI-8226 leukemia = test system: RPMI-8226 leukemia
786-0 renal = test system: 786-0 renal
NCI/ADR-RES ovarian = test system: NCI/ADR-RES ovarian
HCT-15 colon = test system: HCT-15 colon
OVCAR-3 ovarian = test system: OVCAR-3 ovarian
IGROV1 ovarian = test system: IGROV1 ovarian
NCI-H460 lung = test system: NCI-H460 lung
NCI-H522 lung = test system: NCI-H522 lung
SF-539 CNS = test system: SF-539 CNS
SNB-75 CNS = test system: SNB-75 CNS
HCT-116 colon = test system: HCT-116 colon
CAKI-1 renal = test system: CAKI-1 renal
KM12 colon = test system: KM12 colon
SK-MEL-2 melanoma = test system: SK-MEL-2 melanoma
U251 CNS = test system: U251 CNS
A549 NSCLC = test system: A549 NSCLC
SK-MEL-28 melanoma = test system: SK-MEL-28 melanoma
HOP-92 NSCLC = test system: HOP-92 NSCLC
HS 578T breast = test system: HS 578T breast
NCI-H226 lung = test system: NCI-H226 lung
DU-145 prostate = test system: DU-145 prostate
T-47D breast = test system: T-47D breast
TK-10 renal = test system: TK-10 renal
OVCAR-4 ovarian = test system: OVCAR-4 ovarian
HL-60(TB) leukemia = test system: HL-60(TB) leukemia
CCRF-CEM leukemia = test system: CCRF-CEM leukemia
A498 renal = test system: A498 renal
K-562 leukemia = test system: K-562 leukemia
BT-549 breast = test system: BT-549 breast
SN12C renal = test system: SN12C renal
EKVX NSCLC = test system: EKVX NSCLC
RXF 393 renal = test system: RXF 393 renal
HT29 colon = test system: HT29 colon
SK-OV-3 ovarian = test system: SK-OV-3 ovarian
MCF7 breast = test system: MCF7 breast

c1ccc(CSc2nc(N3CCCCC3)c3cn[nH]c3n2)cc1
TGI (UACC-62 melanoma): 32 µM
TGI (NCI-H23 lung): 66.5 µM
TGI (OVCAR-8 ovarian): 74.3 µM
TGI (SK-MEL-5 melanoma): 31 µM
TGI (LOX IMVI melanoma): 49.1 µM
TGI (MOLT-4 leukemia): > 100 µM
TGI (MDA-MB-231 breast): 36.8 µM
TGI (MDA-MB-435): 47.9 µM
TGI (PC-3 prostate): 51 µM
TGI (SR leukemia): > 100 µM
TGI (SW-620 colon): 44.5 µM
TGI (HOP-62 NSCLC): 43.3 µM
TGI (SF-268 CNS): 61.3 µM
TGI (OVCAR-5 ovarian): > 100 µM
TGI (UO-31 renal): 42.8 µM
TGI (ACHN renal): 94.7 µM
TGI (M14 melanoma): 37 µM
TGI (COLO 205 colon): 62.4 µM
TGI (MALME-3M melanoma): 37.3 µM
TGI (UACC-257 melanoma): 35.4 µM
TGI (HCC-2998 colon): 45 µM
TGI (SNB-19 CNS): 79 µM
TGI (SF-295 CNS): 63.7 µM
TGI (RPMI-8226 leukemia): 72.8 µM
TGI (786-0 renal): 79.8 µM
TGI (NCI/ADR-RES ovarian): > 100 µM
TGI (HCT-15 colon): > 100 µM
TGI (OVCAR-3 ovarian): 69.1 µM
TGI (IGROV1 ovarian): 41.8 µM
TGI (NCI-H460 lung): 64.5 µM
TGI (NCI-H522 lung): 36.4 µM
TGI (SF-539 CNS): 34.9 µM
TGI (SNB-75 CNS): 46.8 µM
TGI (HCT-116 colon): 44.1 µM
TGI (CAKI-1 renal): > 100 µM
TGI (KM12 colon): 35.4 µM
TGI (SK-MEL-2 melanoma): 32.5 µM
TGI (U251 CNS): 40.7 µM
TGI (A549 NSCLC): > 100 µM
TGI (SK-MEL-28 melanoma): 41.3 µM
TGI (HOP-92 NSCLC): 72.8 µM
TGI (HS 578T breast): 43.9 µM
TGI (NCI-H226 lung): 44.9 µM
TGI (DU-145 prostate): > 100 µM
TGI (T-47D breast): > 100 µM
TGI (TK-10 renal): 70.2 µM
TGI (OVCAR-4 ovarian): > 100 µM
TGI (HL-60(TB) leukemia): > 100 µM
TGI (CCRF-CEM leukemia): > 100 µM
TGI (A498 renal): 34.3 µM
TGI (K-562 leukemia): > 100 µM
TGI (BT-549 breast): 34.6 µM
TGI (SN12C renal): 42 µM
TGI (EKVX NSCLC): 65.3 µM
TGI (RXF 393 renal): 35.4 µM
TGI (HT29 colon): > 100 µM
TGI (SK-OV-3 ovarian): > 100 µM
TGI (MCF7 breast): 72.4 µM

Cn1cc(-c2nc3c(F)cc4[nH]ncc4c3c3c2CCCC3)c(C(F)(F)F)n1
GI50 (UACC-62 melanoma): 5.54 µM
TGI (UACC-62 melanoma): 28.3 µM
GI50 (NCI-H23 lung): 8.73 µM
TGI (NCI-H23 lung): > 100 µM
GI50 (OVCAR-8 ovarian): 15.3 µM
TGI (OVCAR-8 ovarian): > 100 µM
GI50 (SK-MEL-5 melanoma): 9.12 µM
TGI (SK-MEL-5 melanoma): 22.9 µM
GI50 (LOX IMVI melanoma): 7.8 µM
TGI (LOX IMVI melanoma): 25 µM
GI50 (MOLT-4 leukemia): 4.2 µM
TGI (MOLT-4 leukemia): 40.4 µM
GI50 (MDA-MB-231 breast): 13.1 µM
TGI (MDA-MB-231 breast): > 100 µM
GI50 (MDA-MB-435): 5.36 µM
TGI (MDA-MB-435): > 100 µM
GI50 (PC-3 prostate): 14.6 µM
TGI (PC-3 prostate): > 100 µM
GI50 (SR leukemia): 5.25 µM
TGI (SR leukemia): > 100 µM
GI50 (SW-620 colon): 11.3 µM
TGI (SW-620 colon): 48.7 µM
GI50 (HOP-62 NSCLC): 6.22 µM
TGI (HOP-62 NSCLC): 44 µM
GI50 (SF-268 CNS): 12 µM
TGI (SF-268 CNS): 55.3 µM
GI50 (OVCAR-5 ovarian): 19.2 µM
TGI (OVCAR-5 ovarian): 86.6 µM
GI50 (UO-31 renal): 4.26 µM
TGI (UO-31 renal): 19.5 µM
GI50 (ACHN renal): 5.05 µM
TGI (ACHN renal): > 100 µM
GI50 (M14 melanoma): 8.54 µM
TGI (M14 melanoma): 44.2 µM
GI50 (COLO 205 colon): 19.6 µM
TGI (COLO 205 colon): 57.1 µM
GI50 (MALME-3M melanoma): 8.87 µM
TGI (MALME-3M melanoma): 34.2 µM
GI50 (UACC-257 melanoma): 25.9 µM
TGI (UACC-257 melanoma): > 100 µM
GI50 (HCC-2998 colon): 16.4 µM
TGI (HCC-2998 colon): 49.3 µM
GI50 (SNB-19 CNS): 26.8 µM
TGI (SNB-19 CNS): > 100 µM
GI50 (SF-295 CNS): 9.57 µM
TGI (SF-295 CNS): 69.8 µM
GI50 (RPMI-8226 leukemia): 11.5 µM
TGI (RPMI-8226 leukemia): > 100 µM
GI50 (786-0 renal): 10.7 µM
TGI (786-0 renal): 27.7 µM
GI50 (NCI/ADR-RES ovarian): 15.8 µM
TGI (NCI/ADR-RES ovarian): > 100 µM
GI50 (HCT-15 colon): 14.2 µM
TGI (HCT-15 colon): > 100 µM
GI50 (OVCAR-3 ovarian): 23.2 µM
TGI (OVCAR-3 ovarian): 75.8 µM
GI50 (IGROV1 ovarian): 4.15 µM
TGI (IGROV1 ovarian): 28.7 µM
GI50 (NCI-H460 lung): 10.4 µM
TGI (NCI-H460 lung): 33.9 µM
GI50 (NCI-H522 lung): 3.45 µM
TGI (NCI-H522 lung): 19.6 µM
GI50 (SF-539 CNS): 7.55 µM
TGI (SF-539 CNS): 22.8 µM
GI50 (SNB-75 CNS): 3.69 µM
TGI (SNB-75 CNS): 16.9 µM
GI50 (HCT-116 colon): 4.3 µM
TGI (HCT-116 colon): 22.1 µM
GI50 (CAKI-1 renal): 3.33 µM
TGI (CAKI-1 renal): > 100 µM
GI50 (KM12 colon): 2.85 µM
TGI (KM12 colon): > 100 µM
GI50 (SK-MEL-2 melanoma): 13 µM
TGI (SK-MEL-2 melanoma): 30.5 µM
GI50 (U251 CNS): 18.2 µM
TGI (U251 CNS): 56.9 µM
GI50 (A549 NSCLC): 5.7 µM
TGI (A549 NSCLC): 59.4 µM
GI50 (SK-MEL-28 melanoma): 12.8 µM
TGI (SK-MEL-28 melanoma): 74.8 µM
GI50 (HOP-92 NSCLC): 19.6 µM
TGI (HOP-92 NSCLC): > 100 µM
GI50 (HS 578T breast): 4.59 µM
TGI (HS 578T breast): 27.2 µM
GI50 (NCI-H226 lung): 22.7 µM
TGI (NCI-H226 lung): 67.2 µM
GI50 (DU-145 prostate): 10.9 µM
TGI (DU-145 prostate): 77.7 µM
GI50 (T-47D breast): 9.51 µM
TGI (T-47D breast): 76.9 µM
GI50 (TK-10 renal): 10.1 µM
TGI (TK-10 renal): 75 µM
GI50 (HL-60(TB) leukemia): 5.5 µM
TGI (HL-60(TB) leukemia): 28.2 µM
GI50 (CCRF-CEM leukemia): 4.66 µM
TGI (CCRF-CEM leukemia): > 100 µM
GI50 (A498 renal): 1.7 µM
TGI (A498 renal): 4.88 µM
GI50 (K-562 leukemia): 8.25 µM
TGI (K-562 leukemia): > 100 µM
GI50 (BT-549 breast): 2.62 µM
TGI (BT-549 breast): 15.4 µM
GI50 (SN12C renal): 8.25 µM
TGI (SN12C renal): 81.8 µM
GI50 (EKVX NSCLC): 9.47 µM
TGI (EKVX NSCLC): 36.6 µM
GI50 (RXF 393 renal): 2.67 µM
TGI (RXF 393 renal): 12.2 µM
GI50 (HT29 colon): 9.05 µM
TGI (HT29 colon): > 100 µM
GI50 (SK-OV-3 ovarian): 6.85 µM
TGI (SK-OV-3 ovarian): 38.5 µM
GI50 (MCF7 breast): 5.38 µM
TGI (MCF7 breast): 45.4 µM

— PubChem BioAssay (NCI)
